Measured values from patent publication US4595530A, “Thiodeazapurine derivatives” (Takeda Chemical Industries, Ltd., priority 1983, dated 1986).
In brackets after ≈: the same amount, converted by molar mass.

Columns and labels:
L5178Y mouse tumor cells = test: growth inhibition of cultured L5178Y cells; format: cell-based; conditions: 72 hours incubation with drug, cell count vs non-treated control, read-out: IC50 (50% growth inhibitory concentration)
Procedure: 1×10^4 L5178Y mouse tumor cells were suspended in 2 ml of a RPMI-1640 medium containing 10% of bovine fetal serum, 20 μM of 2-mercaptoethanol and 100 μg/ml kanamycin (Nissui Pharmaceutical Co., Ltd. Japan), and incubated at 37° C. for 24 hours before addition of the drug. Using the above culture fluid as a diluent, the compound of Example 1 was diluted 1/4-fold in a series of 5 stages, the maximum concentration of the compound in the medium being 200 μg/ml. The dilutions were further incubated for 72 hours, at the end of which time the cells were counted and the IC50 (50% growth inhibitory concentration) was calculated with the count for the non-treated control group being taken as 100%.

[1] = system: rat liver tRNA-guanine transglycosylase; test: uptake of compound into tRNA ([3H]-guanine labeled tRNA exchange); format: biochemical; conditions: 0.02 OD260 of compound, 37° C., 17 hours, 0.5 unit enzyme
Procedure: [^3 H]-Guanine labeled tRNA^(*^) (8000 cpm), 70 mM of tris hydrochloride, 60 mM of magnesium chloride, 0.5 unit of rat liver tRNA-guanine transglycosylase and 0.02 OD260 of the compound of Example 1 (which appears hereinafter) (100 μl) were incubated at 37° C. for 17 hours. The reaction mixture was applied to a Whatman 3 MM filter paper (Whatman Co., U.S.A.) and washed 3 times with a 5% aqueous solution of trichloroacetic acid and, then, once each with ethanol/ether (1:1) and ether alone. After drying, the uptake of the test compound was determined in a toluenic scintillation fluid.
^(*^) tRNA with the firstletter (base) of its anticodon labeled with [^3 H]guanine.
The uptake of the compound of Example 2 into tRNA was determined in the same manner as Experimental Example 1. The result was 57%.

Meth A tumor cells = test: Meth A tumor growth inhibition in mice; format: in vivo; conditions: BALB/c mouse, s.c. transplant, 100 mg/kg i.p. once daily for 14 days from day 4, tumor weight on 35th day
Procedure: 5×10^4 Meth A tumor cells were subcutaneously transplanted into a BALB/c mouse weighing 20 g and starting on the 4th day after transplantation, a solution of the compound of Example 1 in 0.1 ml of distilled water was intraperitoneally injected into the mouse once daily in a dose of 100 mg/kg for 14 consecutive days. On the 35th day after transplantation, the tumor node was enucleated and weighed.

Compound | IC50 (L5178Y mouse tumor cells) | uptake of the test compound into tRNA (% of tRNA) [1] | tumor growth inhibition rate (Meth A tumor cells)
Nc1nc2[nH]cc(CN[C@H]3C=C[C@H](O)[C@@H]3O)c2c(=S)[nH]1 [Example 1, 2-amino-5-[(3S,4R,5S)-4,5-dihydroxycyclopent-1-en-3-ylaminomethy-]pyrrolo[2,3-d]pyrimidine-4-thione] | 22 µg/mL (≈ 75 µM) | 81% | 71%
NCc1c[nH]c2nc(N)[nH]c(=S)c12 [Example 2, 2-amino-5-aminomethylpyrrolo[2,3-d]pyrimidine-4-thione] | – | 57% | –
